Test: Agilent ZORBAX 300 SB-C18, 150 × 1 mm, 3.5 µm; A: water + 0.01% heptafluorobutyric acid; B: acetonitrile + 0.01% heptafluorobutyric acid; gradient (min/%B) 0/0 100/90
Details: stereoisomer not certain

| SMILES | LC retention time |
| --- | --- |
| Cc1cccc(NC(N)=S)n1 | 8.81 min |
| NC1CCOC1=O (configuration not stated) | 3.11 min |
| O=C(C=Cc1ccccc1)c1cc2ccccc2o1 | 16.7 min |
| CC(CCc1ccccc1)NCC(O)c1ccc(O)c(C(N)=O)c1 (configuration not stated) | 10 min |
| Cc1cc(C)c2c(CC(=O)NN(C)C)coc2c1 | 10.9 min |
| CCn1c(=O)n(CC)c2cc(C=O)ccc21 | 10.2 min |
| CCN(CC)c1nc(N)nc(N2N=CC=NN2)n1 | 8.12 min |
| Cc1nc2c(ccc3[nH]c(C)nc32)[nH]1 | 7.32 min |
| O=S(=O)(O)CCN1CCOCC1 | 1.67 min |
| CC(=O)NCCC1CCCCN1 (configuration not stated) | 6.55 min |
| CN(C)NC1=CC(=O)CC(c2ccccc2)C1 (configuration not stated) | 10.4 min |
| CCN(CC)CC(=O)Nc1c(C)cc(C)cc1C | 9.28 min |
| COc1ccc(-c2cnc3ccccc3n2)cc1 | 14.7 min |
| c1nc2cc3ncc[nH]c3cc2n1 | 7.13 min |
| O=C(C=Cc1ccccc1)c1cc(O)ccc1O | 12.5 min |
| O=C1CC(N2CCN(Cc3ccccc3)CC2)C(=O)N1Cc1ccccc1 (configuration not stated) | 9.91 min |
| O=C1c2ccccc2-c2nc3ccccc3nc21 | 13 min |
| O=C(c1ccccc1)c1nc2ccccc2[nH]c1=O | 11.2 min |
| Cc1ccc(-c2nc(-c3ccc(-c4ccccc4)cc3)[nH]c2-c2ccccc2)cc1C | 15 min |
| CC(C)c1ccc(C=NNC(N)=S)cc1 | 12.8 min |
| Cc1cccc(Nc2cc(C)nc3ccccc23)c1 | 10.4 min |
| CC(C)NCCO | 5.44 min |
| O=C(c1ccc(-c2ccccc2)cc1)N1CCN(c2ccccc2)CC1 | 16.5 min |

| SMILES | LC retention time |
| --- | --- |
| CCCCCCCCCCCCCN | 14 min |
| c1ccc(CN2CCN(Cc3ccccc3)C2c2cccs2)cc1 | 11 min |
| N=C(N)N=Nc1ccc(O)cc1 | 7.38 min |
| Nc1ccc(N)nc1 | 5.45 min |
| NC(=O)CCN1CCNCC1 | 6.16 min |
| C#CCN(CC)CC#C | 6.73 min |
| CNCCCn1c(=O)[nH]c2ccccc21 | 7.64 min |
| NCCCN1CCc2ccccc21 | 8.54 min |
| CN(C)CCCN1CCC(=O)C2CCCCC21 (configuration not stated) | 7.52 min |
| CCCCCCCCCCNCCCCCCCCCC | 17.8 min |
| O=C(O)c1cc(=O)n(-c2ccc(S(=O)(=O)O)cc2)[nH]1 | 2.18 min |
| CCCN1CCCCC1C(=O)Nc1c(C)cccc1C (configuration not stated) | 9.88 min |
| CC(C)(CO)Nc1c[nH]c(=O)[nH]c1=O | 6.01 min |
| O=C(CCC1CCCC1)N1CCN(C(=O)COc2ccccc2)CC1 | 13.7 min |
| COC(=O)CCC(=O)Nc1ccc(C)cc1C | 11.7 min |
| NC(=O)NNC(=S)Nc1ccccc1 | 7.03 min |
| CCOc1ccc(Cc2c(O)n(-c3ccc(CC)cc3)c(=O)[nH]c2=O)cc1 | 14.4 min |
| CCN1CN(Cc2ccccc2)CNC1=S | 10.8 min |
| CC1N(CCC(N)=O)c2ccccc2C1(C)C (configuration not stated) | 11.8 min |
| O=C(O)CNC(=O)c1ccccc1 | 7.38 min |
| CC(C)C(N)C(=O)O (configuration not stated) | 2.86 min |
| c1ccc2c(c1)CCCN2 | 7.61 min |
| Cc1[nH]c(C)c(C(=O)c2ccccc2)c1C | 12.5 min |

| SMILES | LC retention time |
| --- | --- |
| NC1CCOCC1 | 4.24 min |
| CCCCCCN(C)CCCCCC | 11.9 min |
| NC1=NCCS1 | 5.28 min |
| CC(C)[N+]1(C)C2CCC1CC(OC(=O)C(CO)c1ccccc1)C2 (configuration not stated) | 9.23 min |
| Cn1c(=O)c2c(ncn2C)n(C)c1=O | 7.49 min |
| CCC(=O)Nc1ccc(Oc2ccc(NC(=O)CC)c(NC(=O)CC)c2)cc1 | 10.5 min |
| CCC(NC)c1ccccc1OC (configuration not stated) | 9.09 min |
| C[N+](C)(C)c1ccccc1 | 7 min |
| CC1(C)CC(NCC(=O)NC2CC(C)(C)NC(C)(C)C2)CC(C)(C)N1 | 7.71 min |
| CCCCCC(=O)OC1(C(C)=O)CCC2C3CCC4=CC(=O)CCC4(C)C3CCC21C (configuration not stated) | 21.2 min |
| N=C(N)SCCSCCSC(=N)N | 7.21 min |
| CN1CCc2cccc3c2C1Cc1ccc(O)c(O)c1-3 (configuration not stated) | 8.8 min |
| Cc1ccc(C)n1-c1cccc(C(=O)O)c1 | 12.9 min |
| CC1C2=C(CC(C)(C)CC2=O)NC2=C1C(=O)CC(C)(C)C2 | 10.9 min |
| S=c1[nH]ccc2ccccc12 | 9.61 min |
| CCC(C)C(NC(=O)C1CCCN1)C(=O)O (configuration not stated) | 7.86 min |
| CC(C)CC(C)N (configuration not stated) | 7.77 min |
| NC(=O)c1ccc[n+](C2OC(COP(=O)(O)O)C(O)C2O)c1 (configuration not stated) | 1.78 min |
| Cc1cc(C(N)=O)c2ccccc2n1 | 7 min |
| CNCc1cccs1 | 7 min |
| Cc1ccccc1-n1c(O)c(C=C2C=Nc3ccccc32)c(=O)n(-c2ccccc2C)c1=O | 15.9 min |
